From US6486169B1, “Botanical drug for treatment and prevention of alzhimer's disease” (priority 2002, dated 2002)
Marks after values point to notes of the source that are not given here.

Columns and labels:
LTP in CAI area of brain = test: Long-term potentiation (LTP) by electro-physiological method; format: in vivo; conditions: control 8
Description: The long-term potentiation (LTP) is model of information stored in brain. LTP is as an index determined by electro-physiological method and express as mv in CAI area of brain.

[1] = test system: Ca++ concentration of brain cells; test: Ca++ concentration of brain cell; format: in vivo; conditions: control 112
Experimental: Method of animal is as same as example 7.
Ca^++ concentration of brain cell was determined.

brain protein synthesis = test: Brain protein synthesis, (14C) leucine incorporation in cell free brain homogenate; format: in vivo, mice of DBA/2 strains; conditions: mice, injected 1.0 mg/kg each, control 901
Experimental: It is known that an age-dependent decline in animal brain protein synthesis. The decreased incorporation of amino acids into proteins can be observed in vitro including brain slices, brain cell suspensions, cell free brain homogenate preparations from older animals. Four months of male mice of DBA/2 strains used in experiment. Mice of HUE group injected HUE and dose was 0.1, 0.5 and 1.0 mg/kg. Mice of control group were injected by same value of saline. Mice killed and brain was rapidly removed. Cell free brain homogenate preparations used in experiment. (^14C) leucine mixed with homogenate suspension was incubated at 37° C. Homogenate precipitated with 10% trichloroacetic acid (TCA) and filtered onto glass fiber filters. The filters were washed with phosphate-buffered saline and placed in scintillation vials 10 ml of scintillation solution (which containing […]) were added to digested solution and determined at LSC and radioactive emissions were counted.

[2] = test system: superoxide anion of pig brain; test: Postischemic SOD-inhibitable NBT reduction (superoxide anion generation) in pig brain; format: in vivo; conditions: piglets, ischemia-reperfusion, pretreated with HUE 0.5 mg/kg; ischemia-reperfusion control 12.9 ± 2.0, normal 2.8 ± 0.3
Experimental: Reperfusion injury after prolonged ischemia appeared to oxygen species of cerebral. The superoxide dismutase (SOD)-inhibitable nitroblue tetrazolium (NBT) reduction was determined as an index of superoxide anion generation in pig brain. In present study, effect of HUE on postischemic SOD-inhibitable NBT reduction was determined.
Piglets (1 kg) of either sex were anesthetized Anesthesia was maintained with α-chloralose. A catheter was inserted into a femoral artery to record blood pressure and to sample for blood gases and pH. Another catheter was placed in a femoral vein for injection of drugs. The trachea was cannulated, and the piglets were ventilated with room air. Body temperature was maintained at 37-38° C. with a water-circulating heating pad. Total cerebral ischemia was performed.
SOD-inhibitable NBT reduction was determined as an index of superoxide anion production. In control group, the piglets treated with vehicle (CSF). In treatment group, the piglets pretreated with HUE (0.5 mg/kg). SOD-inhibitable NBT reduction was determined for 20 minutes. For analysis, the slices were minced and homogenized in 1 N NaOH and 0.1% sodium dodecyl sulfate, the mixture centrifuged at 20,000 g for 20 min, the resulting supernatant discarded, and the pellet resuspended in 3 ml pyridine. […] The concentration of formazan in the resulting solution was determined spectrophotometrically at 515 nm.

DA in brain = test: Concentration of dopamine (DA) in brain; format: in vivo; conditions: 10 mg/kg each; control 880 ± 97
Description: The effect of CLE and HUE on concentration of dopanmine (DA) was examined. The method of animal is as same as mentioned previously.

[3] = test system: N2a neuroblastoma cells exposed to Aβ; test: Viability of N2a neuroblastoma cells exposed to Alzheimer amyloid β protein; format: cell-based; conditions: 50 μm Aβ for 24 hours, HUE 50 μg/ml, βA alone 35.4, normal 97.5
Description: In AD, the protein forms aggregates of insoluble β-pleated sheets of fibrillar βA protein(amyloid). The conformational change from soluble to fibrillar forms seems to be a spontaneous event. The fibrillization is increased with higher concentrations of βA and with the longer forms of βA, so any production of larger amounts of βA than normal or production of the larger, less soluble forms of βA will tend to increase plaque formation. Once the βA plaque has started to form, other molecules can interact with the nascent plaque to produce eventually the mature plaque with its associated areas of cell death. In present study, effect of HUE on neuroblastoma cells exposed to the Alzheimer amyloid β protein and Aβ was examined.
N2a neuroblastoma cells were cultured and then exposed to 50 μm Aβ for 24 hours.
Concentration of HUE was 50 μg/ml. Cells viability determined by fluorescent staining, iodide and the trypan blue exclusion methods were used in experiments.

[4] = test system: RNA synthesis of brain cells; test: RNA synthesis of brain cells, 3H-U incorporation in cell free brain homogenate; format: in vivo, mice of DBA/2 strains; conditions: mice, injected 1.0 mg/kg, control (saline) 1280
Experimental: It is known that decline RNA content in cortical and cerebral cortex of AD. RNA of brain cell was determined.
Four months of male mice of DBA/2 strains used in experiment. Mice of treatment group injected HUE or CLE (dose was 1.0 mg/kg). Mice of control group were injected by same value of saline. Mice killed and brain was rapidly removed. Cell free brain homogenate preparations used in experiment. 0.5 μC ^3H-U (20 μCi/mM) was mixed with 1 ml homogenate suspension was incubated at 37° C. Homogenate precipitated with 10% trichloroacetic acid (TCA) and filtered onto glass fiber filters. The filters were washed with phosphate-buffered saline and placed in scintillation vials 10 ml of scintillation solution (which containing […]) were added to digested solution and determined at LSC and radioactive emissions were counted.

[5] = test system: male mice of PBA/2 strains; test: Effect on memory (2): anisodine-caused mistake of memory; format: in vivo; conditions: anisodine model, dose 50 mg/kg each (50 + 50 for combination), control 38.5 ± 4.0, normal 5.0 ± 1.2
Experimental: Four months of male mice of PBA/2 strains used in experiments. […] The control group was injected saline. Complex learning measures and memory were determined in experiments. (Reference see “Mammalian Models for Research on Aging”, pp 23-180, edited by Committee on Animal Models for Research on Aging, Institute of Laboratory Animal resources, division of Biological Sciences and Assembly of Life Science, published by National Academy Press, Washington, D.C., 1981). Normal animals injected by saline. Control animals injected by anisodine. Anisodine caused mistake of memory.

[6] = test system: male mice of PBA/2 strains; test: Effect on memory (1): complex learning measures and memory in mice; format: in vivo; conditions: injected, normal = 100
Experimental: Four months of male mice of PBA/2 strains used in experiments. […] Mice of HUE group were injected 0.1, 0.5 and 1.0 mg/kg of HUE. The control group was injected saline. Complex learning measures and memory were determined in experiments. (Reference see “Mammalian Models for Research on Aging”, pp 23-180, edited by Committee on Animal Models for Research on Aging, Institute of Laboratory Animal resources, division of Biological Sciences and Assembly of Life Science, published by National Academy Press, Washington, D.C., 1981). Normal animals injected by saline. Control animals injected by anisodine. Anisodine caused mistake of memory.

Compound | LTP (mv in CAI) (LTP in CAI area of brain) [mv] | Ca^++ [1] [µmol/L] | CPM ((14C) leucine into protein) (brain protein synthesis) [CPM] | Pmol NBT/mm^2, 20 min (SOD-inhibitable NBT reduction) [2] | DA (ng/g brain) (DA in brain) | Cells viability (%) [3] | CPM (3H-U into RNA) [4] [CPM] | Number of mistake [5] | Increasing memory (%) ([6]; 0.1 mg/kg) | Increasing memory (%) ([6]; 0.5 mg/kg) | Increasing memory (%) ([6]; 1.0 mg/kg)
C/C=C1\[C@H]2C=C(C)C[C@]1(N)c1ccc(=O)[nH]c1C2 [HUE, Huperzine] | 10 | 160 | 2640 | 4.2 ± 0.5 Pmol NBT/mm^2, 20 min | 1280 ± 120 | 80.2* % | 1860 | *10.8 ± 1.5 | 150 | 210 | 350
Clausenamide [CLE] | 13 | 220 | 1580 | – | 1560 ± 102 | 70.5* % | 1540 | *11.2 ± 2.0 | – | – | –
